The text below walks through data of US12605411B2, “Phospholipid compositions for delivery of therapeutic compounds” (Aker BioMarine Human Ingredients AS, priority 2022, dated 2026).

A short description of series [1]: Plasma CBD concentration after dosing (FIG. 5). In kind it is in vivo.
The conditions of series [2]: humans, taken orally; cited from earlier work.
Series [3] in a line: CoQ10 absorption in plasma after single dose, clinical study. In kind it is in vivo, human. As for the experimental part: The purpose of the study was to investigate compare the CoQ10 level of absorption in the plasma of a phospholipid krill oil+CoQ10 product to a comparator CoQ10-product (without any krill oil).
Absorption levels of CoQ10 in plasma were measured at time (T)=0, 2, 4, 6 and 8 hours after the single-dose (2 soft gels) intake of the study products. A 7-day minimum washout period between the two doses was specified.
A total of 13 subjects successfully completed the study.

The conditions of series [4]: cited from earlier work.
The conditions of series [5]: cited from earlier work. The source holds these as a separate data set.

A word on the logP: it is the decadic logarithm of the partition coefficient of the neutral form, usually between octanol and water. A word on the solubility: it is how much of the substance goes into solution per volume.

In brackets after ≈: the same amount, converted by molar mass. Where only a bound is given, the exact number is not on record here.

In the case of `C=C(C)[C@@H]1CCC(C)=C[C@H]1c1c(O)cc(CCCCC)cc1O` [CBD, Cannabidiol], the “increase of bioavailability of CBD” value in series [1] (krill oil compared to MCT, FIG. 5) was 3 fold. In addition, the “absorption of CBD (plasma CBD concentration)” value in series [1] (krill oil vs medium chain triglyceride (MCT) oil) was “much greater extent”. For the same compound, in series [2], the bioavailability result is given as “around 6%”.
For `COC1=C(OC)C(=O)C(C/C=C(\C)CC/C=C(\C)CC/C=C(\C)CC/C=C(\C)CC/C=C(\C)CC/C=C(\C)CC/C=C(\C)CC/C=C(\C)CC/C=C(\C)CCC=C(C)C)=C(C)C1=O` [CoQ10, Coenzyme Q10], in series [3] (0-8 hours after single dose, 13 subjects), the “absorption of CoQ10 in plasma, change from baseline (in words)” value was “No significant absorption”. Moreover, the “Change of plasma CoQ10 from baseline” value is recorded as −11.49% in series [3] (2 hours), −4.53% in series [3] (4 hours), 1.71% in series [3] (6 hours) and 6.15% in series [3] (8 hours). Further, the concentration at 2 h in series [3] (human, plasma, oral, 2 soft gels, 2 hours after single dose) came out at 8.78 µg/mL. In addition, the concentration at 4 h in series [3] (human, plasma, oral, 2 soft gels, 4 hours after single dose) was 9.57 µg/mL. In addition, the concentration at 6 h in series [3] (human, plasma, oral, 2 soft gels, 6 hours after single dose) was found to be 10.1 µg/mL. This compound registered a concentration at 8 h in series [3] (human, plasma, oral, 2 soft gels, 8 hours after single dose) of 10.5 µg/mL. The concentration at 0 h in series [3] (human, plasma, oral, 2 soft gels, Baseline) was determined as 9.92 µg/mL.
Consider `O=c1c(O)c(-c2ccc(O)c(O)c2)oc2cc(O)ccc12` [Fisetin], for which the logP in series [4] is listed as 1.81-2.03. Further, in series [5], the solubility is reported as under 1 mg/mL and the Solubility ethanol was 5 mg/mL (≈ 17.5 mM). The Solubility water in series [5] (water) is given as 0.15 mg/mL (≈ 0.524 mM).
Turning to `O=c1c(O)c(-c2ccc(O)c(O)c2)oc2cc(O)cc(O)c12` [Quercetin], the lipophilicity (logP) in series [4] was 1.50. Moreover, the Solubility ethanol in series [5] was 2 mg/mL (≈ 6.62 mM).
